How the values were obtained:
[1] = reversed-phase LC retention time (C18, 15 min MeOH gradient); higher = more hydrophobic / later elution
[2] = collision cross section (TIMS, N2 drift gas) of the primary ion; higher = larger gas-phase ion size
[3] = ionization mode: ESI+, ion species: [M+H]+
[4] = ionization mode: ESI-, ion species: [M-H]-

Compound | reversed-phase LC retention time [1, 3] | collision cross section [2, 3] | reversed-phase LC retention time [1, 4] | collision cross section [2, 4]
C=C1C[C@@H]2[C@H](CC[C@]3(C)C(=O)CC[C@@H]23)[C@@]2(C)C=CC(=O)C=C12 [Exemestane] | 13.9 min | 173.31 Å² |  | 
CSC1=N[C@@](C)(c2ccccc2)C(=O)N1Nc1ccccc1 [Fenamidone] | 14.1 min | 173.13 Å² |  | 
CC1(C(=O)Nc2ccc(O)c(Cl)c2Cl)CCCCC1 [Fenhexamid] | 14.8 min | 166.46 Å² | 14.6 min | 172.09 Å²
CC(Oc1ccc(Oc2nc3ccc(Cl)cc3o2)cc1)C(=O)O (stereo unspecified) [Fenoxaprop-P] | 15.3 min | 181.01 Å² | 13.9 min | 189.16 Å²
CCOC(=O)NCCOc1ccc(Oc2ccccc2)cc1 [Fenoxycarb] | 15.2 min | 180.55 Å² |  | 
CC(Cc1ccc(C(C)(C)C)cc1)CN1CCCCC1 (stereo unspecified) [Fenpropidin] | 13.6 min | 166.93 Å² |  | 
CC(Cc1ccc(C(C)(C)C(=O)O)cc1)CN1CC(C)OC(C)C1 (stereo unspecified) [Fenpropimorph acid] | 10.8 min | 177.46 Å² | 14.3 min | 188.8 Å²
CC(Cc1ccc(C(C)(C)C)cc1)CN1C[C@@H](C)O[C@@H](C)C1 (stereo partly specified) [Fenpropimorph] | 13.8 min | 174.32 Å² |  | 
Cc1nn(C)c(Oc2ccccc2)c1/C=N/OCc1ccc(C(=O)OC(C)(C)C)cc1 [Fenpyroximate] | 17.5 min | 203.95 Å² |  | 
COP(=S)(OC)Oc1ccc(SC)c(C)c1 [Fenthion] | 14.1 min | 160.76 Å² |  | 
CN(C)C(=O)Nc1ccccc1 [Fenuron] | 8.82 min | 132.76 Å² |  | 
CC(C)(C(=O)O)c1ccc(C(O)CCCN2CCC(C(O)(c3ccccc3)c3ccccc3)CC2)cc1 (stereo unspecified) [Fexofenadine] | 12.8 min | 223.95 Å² | 14.2 min | 224.37 Å²
CC(C)(C)NC(=O)[C@H]1CC[C@H]2[C@@H]3CC[C@H]4NC(=O)C=C[C@]4(C)[C@H]3CC[C@]12C [Finasteride] | 14.6 min | 203.71 Å² | 15 min | 198.56 Å²
N#Cc1nn(-c2c(Cl)cc(C(F)(F)F)cc2Cl)c(N)c1C(F)(F)F [Fipronil desulfinyl] |  |  | 15.4 min | 168.16 Å²
N#Cc1nn(-c2c(Cl)cc(C(F)(F)F)cc2Cl)c(N)c1SC(F)(F)F [Fipronil sulfide] |  |  | 15.8 min | 173.94 Å²
N#Cc1nn(-c2c(Cl)cc(C(F)(F)F)cc2Cl)c(N)c1S(=O)(=O)C(F)(F)F [Fipronil sulfone] |  |  | 16.1 min | 178.27 Å²
N#Cc1nn(-c2c(Cl)cc(C(F)(F)F)cc2Cl)c(N)c1S(=O)C(F)(F)F (stereo unspecified) [Fipronil] |  |  | 15.6 min | 177.2 Å²
N#CCNC(=O)c1cnccc1C(F)(F)F [Flonicamid] | 7.31 min | 149.83 Å² |  | 
Cc1cc(C(F)(C(F)(F)F)C(F)(F)F)ccc1NC(=O)c1cccc(I)c1C(=O)NC(C)(C)CS(C)(=O)=O [Flubendiamide] |  |  | 15.8 min | 222.96 Å²
OC(Cn1cncn1)(Cn1cncn1)c1ccc(F)cc1F [Fluconazole] | 9.38 min | 166.92 Å² | 9.54 min | 158.78 Å²

Compound | reversed-phase LC retention time [1, 3] | collision cross section [2, 3] | reversed-phase LC retention time [1, 4] | collision cross section [2, 4]
N#Cc1c[nH]cc1-c1cccc2c1OC(F)(F)O2 [Fludioxonil] |  |  | 14.4 min | 145.03 Å²
CC(=O)OCC(=O)[C@@]1(O)CC[C@H]2[C@@H]3CCC4=CC(=O)CC[C@]4(C)[C@@]3(F)[C@@H](O)C[C@@]21C [Fludrocortisone-21-acetate] |  |  | 13.6 min | 197.85 Å²
CC(C)N(C(=O)COc1nnc(C(F)(F)F)s1)c1ccc(F)cc1 [Flufenacet] | 14.9 min | 178.11 Å² |  | 
O=C(O)c1ccccc1Nc1cccc(C(F)(F)F)c1 [Flufenamic acid] |  |  | 14 min | 159.1 Å²
O=C(NC(=O)c1c(F)cccc1F)Nc1ccc(Oc2ccc(C(F)(F)F)cc2Cl)cc1F [Flufenoxuron] | 17.4 min | 204.54 Å² | 17.8 min | 215.68 Å²
CC1CCc2cc(F)cc3c(=O)c(C(=O)O)cn1c23 (stereo unspecified) [Flumequine] | 11.7 min | 152.91 Å² | 9.17 min | 166.14 Å²
C#CCN1C(=O)COc2cc(F)c(N3C(=O)C4=C(CCCC4)C3=O)cc21 [Flumioxazin] | 13.5 min | 188.98 Å² |  | 
CC1(C)O[C@@H]2C[C@H]3[C@@H]4C[C@H](F)C5=CC(=O)C=C[C@]5(C)[C@@]4(F)[C@@H](O)C[C@]3(C)[C@]2(C(=O)CO)O1 [Fluocinolone acetonide] |  |  | 13.7 min | 198.83 Å²
O=C(NCc1ncc(C(F)(F)F)cc1Cl)c1c(Cl)cccc1Cl [Fluopicolide] | 14.4 min | 176.08 Å² |  | 
O=C(NCCc1ncc(C(F)(F)F)cc1Cl)c1ccccc1C(F)(F)F [Fluopyram] | 14.7 min | 177.5 Å² | 15.2 min | 179.2 Å²
Oc1ccc(C2(c3ccc(O)cc3)c3ccccc3-c3ccccc32)cc1 [Fluorene-9-bisphenol] |  |  | 15.3 min | 194.22 Å²
CO/N=C(/C1=NOCCO1)c1ccccc1Oc1ncnc(Oc2ccccc2Cl)c1F [Fluoxastrobin] | 14.8 min | 205.37 Å² |  | 
CNCCC(Oc1ccc(C(F)(F)F)cc1)c1ccccc1 (stereo unspecified) [Fluoxetine] | 13.4 min | 177.66 Å² |  | 
OCCN1CCN(CC/C=C2/c3ccccc3Sc3ccc(C(F)(F)F)cc32)CC1 [Flupentixol_1] | 14.9 min | 200.91 Å² |  | 
O=C1C=C(N(Cc2ccc(Cl)nc2)CC(F)F)CO1 [Flupyradifurone] | 9.35 min | 164.36 Å² | 9.46 min | 163.3 Å²
Nc1c(Cl)c(F)nc(OCC(=O)O)c1Cl [Fluroxypyr] |  |  | 7.61 min | 139.78 Å²
CNC1=C(c2cccc(C(F)(F)F)c2)C(=O)C(c2ccccc2)O1 (stereo unspecified) [Flurtamone] | 13.9 min | 179.28 Å² | 14.2 min | 175.08 Å²
C[Si](Cn1cncn1)(c1ccc(F)cc1)c1ccc(F)cc1 [Flusilazole] | 15.2 min | 176.25 Å² |  | 
CCC(=O)O[C@]1(C(=O)SCF)[C@H](C)C[C@H]2[C@@H]3C[C@H](F)C4=CC(=O)C=C[C@]4(C)[C@@]3(F)[C@@H](O)C[C@@]21C [Fluticasone propionate] | 15.2 min | 212.76 Å² | 15.7 min | 209.59 Å²
CC(C)Oc1cccc(NC(=O)c2ccccc2C(F)(F)F)c1 [Flutolanil] | 14.3 min | 173.43 Å² | 14.7 min | 176.16 Å²

Compound | reversed-phase LC retention time [1, 3] | collision cross section [2, 3] | reversed-phase LC retention time [1, 4] | collision cross section [2, 4]
OC(Cn1cncn1)(c1ccc(F)cc1)c1ccccc1F (stereo unspecified) [Flutriafol] | 12.9 min | 167.74 Å² |  | 
COCCCCC(=NOCCN)c1ccc(C(F)(F)F)cc1 [Fluvoxamine] | 13.3 min | 178.07 Å² |  | 
Cn1cc(C(=O)Nc2ccccc2-c2cc(F)c(F)c(F)c2)c(C(F)F)n1 [Fluxapyroxad] | 14.4 min | 178.14 Å² | 14.7 min | 180.37 Å²
COc1ccc(-c2coc3cc(O)ccc3c2=O)cc1 [Formononetin] | 13.2 min | 158.9 Å² | 12.2 min | 163.97 Å²
COc1cc2ccc(=O)oc2c(O)c1O [Fraxetin] | 8.29 min | 138.67 Å² |  | 
COc1cc2ccc(=O)oc2c(O)c1OC [Fraxidin] | 9.58 min | 143.3 Å² | 8.57 min | 145.19 Å²
NS(=O)(=O)c1cc(C(=O)O)c(NCc2ccco2)cc1Cl [Furosemide] | 14.3 min | 161.99 Å² | 9.47 min | 172.55 Å²
O=C1CC2(CCCCC2)CN1 [Gabapentin-Lactam] | 11.2 min | 135.35 Å² |  | 
NCC1(CC(=O)O)CCCCC1 [Gabapentin] | 7.2 min | 139.22 Å² |  | 
COc1ccc2c3c1O[C@H]1C[C@@H](O)C=C[C@@]31CCN(C)C2 [Galantamine] | 5.92 min | 169.25 Å² |  | 
O=c1c(-c2ccc(O)cc2)coc2cc(O)cc(O)c12 [Genistein] | 11.9 min | 160.2 Å² | 10.2 min | 159.59 Å²
C#C[C@]1(O)C=C[C@H]2[C@@H]3CCC4=CC(=O)CC[C@@H]4[C@H]3CC[C@@]21CC [Gestoden] | 14 min | 181.55 Å² |  | 
COc1ccc(Cl)cc1C(=O)NCCc1ccc(S(=O)(=O)NC(=O)NC2CCCCC2)cc1 [Glibenclamide] | 14.8 min | 208.58 Å² | 14 min | 214.7 Å²
CCC1=C(C)CN(C(=O)NCCc2ccc(S(=O)(=O)NC(=O)NC3CCC(C)CC3)cc2)C1=O (stereo unspecified) [Glimepiride] | 15.3 min | 216.66 Å² | 14.3 min | 215.02 Å²
CC1(C)[C@@H](O[C@H]2O[C@H](C(=O)O)[C@@H](O)[C@H](O)[C@H]2O[C@@H]2O[C@H](C(=O)O)[C@@H](O)[C@H](O)[C@H]2O)CC[C@]2(C)[C@H]3C(=O)C=C4[C@@H]5C[C@@](C)(C(=O)O)CC[C@]5(C)CC[C@@]4(C)[C@]3(C)CC[C@@H]12 [Glycyrrhizic acid] |  |  | 11.8 min | 282.7 Å²
NC(N)=NC(=O)Cc1c(Cl)cccc1Cl [Guanfacine] | 9.65 min | 152.13 Å² |  | 
O=C(O)C(F)(OC(F)(F)C(F)(F)C(F)(F)F)C(F)(F)F (stereo unspecified) [HFPO-DA] |  |  | 13 min | 206.28 Å²
CC(Oc1ccc(Oc2ncc(C(F)(F)F)cc2Cl)cc1)C(=O)O (stereo unspecified) [Haloxyfop-P] | 15.5 min | 181.48 Å² | 14 min | 190.86 Å²
Cc1nccc2c1[nH]c1ccccc12 [Harman] | 8.86 min | 136.39 Å² | 13.4 min | 135.7 Å²
COc1ccc2c(c1)[nH]c1c(C)nccc12 [Harmine] | 9.71 min | 145.04 Å² | 13.5 min | 145.84 Å²
